{"source": "patent US20180064755A1", "about": "“COMPOSITIONS AND METHODS FOR TREATING DRUG ADDICTION” (priority 2015, published 2018)", "test_system": "codeine addiction", "assay": "Blind trial, rubidium chloride to treat codeine addiction", "format": "in vivo, human", "experimental": "The trial below was a blind trial with 300 mg of rubidium chloride taken once per day administered in a glass of water in the morning by a person of 90 kg; and a placebo being taken by a person of 66 kg, both of whom were addicted to codeine\nThe trial was undertaken with the recommendation by doctors not to proceed too quickly and to eat potassium rich foods, especially at night; The most difficult aspect was to stop the craving in the evening—a solution for people who cannot stop the craving at night would be to split the dosage of the 300 mg of Rubidium Chloride and take half in the morning and half late in the afternoon.\nThe aim of this trial was to stop the craving for codeine with the aid of the compound and use the enhanced energy and stimulation supplied from the compound that was tested to change addiction habits.\nThe trial was for 300 mg of Rubidium Chloride taken once per day taken in a glass of water in the morning in this blind study and a placebo of powdered sugar taken once per day taken in a glass of water in the morning.", "key": {"[1]": {"settings": "90 kg male, 300 mg once per day, self-report"}}, "data": [{"smiles": "[Cl-].[Rb+]", "note": "[rubidium chloride]", "values": [{"measurement": "craving for codeine", "setting": "90 kg male addicted to codeine, 300 mg once per day in a glass of water in the morning, self-report", "value": "less craving for the drug than normal even after the first day"}, {"measurement": "energy and activity during the day", "setting": "[1]", "value": "much more energy than before"}, {"measurement": "stimulation from the medication", "setting": "[1]", "value": "very, very strong"}, {"measurement": "outcome of codeine addiction", "setting": "90 kg male, 300 mg once per day, two month trial", "value": "lost the addiction to codeine"}]}]}
